In patent US12180170B1, “2-(5-(3-fluorophenyl)-4-phenyl-4H-1,2,4-triazol-3-ylthio)acetic acid as an antimicrobial compound” (KING FAISAL UNIVERSITY, priority 2023, dated 2024):

Columns and labels:
Assay type in all cases: cell-based
Staphylococcus aureus = experiment: Agar plate disc-diffusion, antibacterial inhibition zone; conditions: nutrient agar, 37° C., 48 h, DMSO control zone subtracted
Procedure: (§1) The agar plate disc-diffusion method was applied. […] The discs were then placed onto the surface of agar plates (nutrient agar for bacteria and Sabouraud's dextrose agar for fungi) seeded with the test organism. Each plate contained 15 mL of the agar medium, previously seeded with 0.2 mL of the broth culture of each organism pregrown for 18 h. The plates were incubated at 37° C. for 48 h, and 72 h for fungi. The inhibition zones was measured in mm. Discs impregnated with DMSO were used as a control, and its inhibition zone was subtracted from the tested compound actual inhibition zone.

Bacillus cereus = experiment: as above; conditions: nutrient agar, 37° C., 48 h, DMSO control zone subtracted
Procedure: as §1

Escherichia coli = experiment: as above; conditions: nutrient agar, 37° C., 48 h, DMSO control zone subtracted
Procedure: as §1

Pseudomonas aeruginosa = experiment: as above; conditions: nutrient agar, 37° C., 48 h, DMSO control zone subtracted
Procedure: as §1

Aspergillus flavus = experiment: Agar plate disc-diffusion, antifungal inhibition zone; conditions: Sabouraud's dextrose agar, 37° C., 72 h, DMSO control zone subtracted
Procedure: as §1

[1] = system: Chrysosporium keratinophilum; experiment: as above; conditions: Sabouraud's dextrose agar, 37° C., 72 h, DMSO control zone subtracted
Procedure: as §1

[2] = A = concentration of comp. = 10,000 μL
[3] = B = concentration of comp. = 30,000 μL
[4] = C = concentration of comp. = 50,000 μL

Structure (SMILES): O=C(O)CSc1nnc(-c2cccc(F)c2)n1-c1ccccc1 [III, 2-(5-(3-fluorophenyl)-4-phenyl-4H-1,2,4-triazol-3-ylthio)acetic acid]
- inhibition zone, Staphylococcus aureus, A (Staphylococcus aureus; [2]): 15 mm
- inhibition zone, Staphylococcus aureus, B (Staphylococcus aureus; [3]): 20 mm
- inhibition zone, Staphylococcus aureus, C (Staphylococcus aureus; [4]): 24 mm
- inhibition zone, Bacillus Cereus, A (Bacillus cereus; [2]): 23 mm
- inhibition zone, Bacillus Cereus, B (Bacillus cereus; [3]): 27 mm
- inhibition zone, Bacillus Cereus, C (Bacillus cereus; [4]): 40 mm
- inhibition zone, Escherichia coli, A (Escherichia coli; A =): 22 mm
- inhibition zone, Escherichia coli, B (Escherichia coli; [3]): 30 mm
- inhibition zone, Escherichia coli, C (Escherichia coli; [4]): 49 mm
- inhibition zone, Pseudomonas aeruginosa, A (Pseudomonas aeruginosa; [2]): 25 mm
- inhibition zone, Pseudomonas aeruginosa, B (Pseudomonas aeruginosa; [3]): 27 mm
- inhibition zone, Pseudomonas aeruginosa, C (Pseudomonas aeruginosa; [4]): 46 mm
- inhibition zone, Aspergillus flavus, A (Aspergillus flavus; [2]): 20 mm
- inhibition zone, Aspergillus flavus, B (Aspergillus flavus; [3]): 27 mm
- inhibition zone, Aspergillus flavus, C (Aspergillus flavus; [4]): 36 mm
- inhibition zone, Chrysosporium keratinophilum, A [1, 2]: 24 mm
- inhibition zone, Chrysosporium keratinophilum, B [1, 3]: 27 mm
- inhibition zone, Chrysosporium keratinophilum, C [1, 4]: 44 mm
